The results in this text go back to article PMC6277198, “Molecular basis for activation of lecithin:cholesterol acyltransferase by a compound that increases HDL cholesterol” (eLife, 2018).

Changes are numbered by the printed parent chain.

Test in all cases: DHE acyltransferase assay with peptide-based HDLs
Assay type in all cases: biochemical

The target of one assay is T1, LCAT R244A (Homo sapiens, UniProt P04180, R268A).
T1 construct: hydrolysis of 4-methylumbelliferyl palmitate (MUP) by full-length LCAT; made in house; host or cells: HEK293F (transient transfection, secreted)
T1 sequence (P04180 25-440 R268A): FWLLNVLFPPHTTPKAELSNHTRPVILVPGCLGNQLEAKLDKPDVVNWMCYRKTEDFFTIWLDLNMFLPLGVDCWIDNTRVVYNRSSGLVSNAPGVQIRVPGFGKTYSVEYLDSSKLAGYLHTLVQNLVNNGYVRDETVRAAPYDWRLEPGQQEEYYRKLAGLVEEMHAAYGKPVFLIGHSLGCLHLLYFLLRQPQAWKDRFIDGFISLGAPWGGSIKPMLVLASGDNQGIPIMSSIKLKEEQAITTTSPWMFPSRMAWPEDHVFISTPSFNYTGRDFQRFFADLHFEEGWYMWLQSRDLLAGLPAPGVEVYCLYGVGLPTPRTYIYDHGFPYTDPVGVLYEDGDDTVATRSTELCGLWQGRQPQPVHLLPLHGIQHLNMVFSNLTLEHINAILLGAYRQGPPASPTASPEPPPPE
As to the method:
(§1) Peptide-based HDLs were used in this assay as there is no difference between peptide HDLs and ApoA-I HDLs in both HDL binding and acyltransferase assays ([Manthei et al., 2017]). The peptide HDLs were made using the ESP24218 peptide with the sequence […] ([Dassuex et al., 1999]; [Li et al., 2015]) with a DPPC:POPC:DHE ratio of 47:47:6 as previously described ([Manthei et al., 2017]). The assay was performed in 384-well low volume black microplates (Corning 4514) with a total assay volume of 16 μL. In each reaction, LCAT was diluted in assay buffer to 15 μg mL^−1 in the presence of either 1% DMSO or 10 μM 2 with 1% DMSO. Compound 2 was used in this assay because it has lower background fluorescence than 1. The DHE HDLs were diluted in 1X PBS with 1 mM EDTA and 5 mM β-mercaptoethanol. 8 μL of the HDLs were added to the plate, and the reactions were initiated with 8 μL of LCAT, so that LCAT was assayed at 7.5 μg mL^−1 with and without 5 μM compound with a range of DHE concentrations from 0 to 50 μM. The reactions were stopped after 25 min at 37 °C with the addition of 4 μL of stop solution (1X PBS with 1 mM EDTA, 5 U mL^−1 cholesterol oxidase (COx), and 7% Triton X100). Following the addition of stop solution, the plates were incubated for another 60 min at 37 °C to allow for the COx to react. After the plates were re-equilibrated at room temperature, fluorescence was determined on a SpectraMax plate reader with excitation at 325 nm and emission at 425 nm, with a 420 nm cutoff. Reactions without LCAT were used for background subtraction, and reactions without LCAT and stop solution lacking COx were used to generate a standard curve for DHE. Reactions were performed in triplicate with three independent experiments per LCAT variant. Data were processed via background subtraction to remove excess fluorescence that results from the higher concentrations of DHE. […] Outliers were removed using automatic outlier elimination within Prism. For statistical analysis, the Vmax for each variant was compared to WT using a one-way analysis of variance followed by Tukey’s multiple comparisons post-test in GraphPad Prism.
(§2) To determine EC50 values, compound 2 was titrated from 0.004 to 10 μM, and the DHE concentration was set at 50 μM. LCAT was diluted in assay buffer and compound 2 dilutions were made with assay buffer containing 5.3% DMSO. 1.5 μL compound was added, then 6.5 μL LCAT, followed by 8 μL DHE. Dilutions were adjusted so that LCAT was assayed at 7.5 μg mL^−1, as above. All values were background subtracted to buffer with the same concentration of compound 2. A standard curve was included in one experiment with DHE from 0 to 50 μM in order to adjust the final fluorescence values to a rate by dividing by the slope of the line and time (25 min), as above. Outliers were removed using automatic outlier elimination within Prism. For statistical analysis, the EC50 for each variant was compared to WT using a one-way analysis of variance followed by Tukey’s multiple comparisons post-test in GraphPad Prism.

In a further assay the target is T2, LCAT Y51S/G71I (Homo sapiens, UniProt P04180, G95I/Y75S).
T2 construct: hydrolysis of 4-methylumbelliferyl palmitate (MUP) by full-length LCAT; made in house; host or cells: HEK293F (transient transfection, secreted)
T2 sequence (P04180 25-440 Y75S/G95I): T1 sequence (P04180 25-440 R268A) with Y51S, G71I, A244R
As to the method: as §1, §2

The next assay concerns the target T3, LCAT R244H (Homo sapiens, UniProt P04180, R268H).
T3 construct: hydrolysis of 4-methylumbelliferyl palmitate (MUP) by full-length LCAT; made in house; host or cells: HEK293F (transient transfection, secreted)
T3 sequence (P04180 25-440 R268H): T1 sequence (P04180 25-440 R268A) with A244H
As to the method: as §1, §2

Setting [1] is: compound 2 titrated from 0.004 to 10 μM, DHE 50 μM.
The mark [2] stands for this setting: highest concentration tested, 10 μM compound 2.

The term EC50 denotes the concentration that produces a half-maximal response. Regarding `O=C1CC(O)(C(F)(F)F)c2c(C3CCN(c4cnc(C(F)(F)F)cn4)CC3)n[nH]c2N1` (stereo not drawn) [compound 2, 4-Hydroxy-4-(trifluoromethyl)−3-(1-(5-(trifluoromethyl)pyrazin-2-yl)piperidin-4-yl)−4,5-dihydro-1H-pyrazolo[3,4-b]pyridin-6(7H)-one], the EC50 on LCAT R244A (setting [1]) was determined as 760 ± 200 nM; at LCAT R244H (setting [1]), 4600 ± 2000 nM. For the same compound, the values for the acyltransferase rate at LCAT R244A (setting [2]) and at LCAT R244H (setting [2]) were 18 µM/h and 26 µM/h, respectively. The “acyltransferase activity in the presence of compound 2” value on LCAT Y51S/G71I (Y51S/G71I variant) is recorded as “failed to increase activity”. For the same compound, the “DHE assay EC50” value at LCAT Y51S/G71I (Y51S/G71I, compound 2 titrated from 0.004 to 10 μM, DHE 50 μM) is “no effect”.
